SMILES strings stand for the structures.

Results on 2 compounds are retold here after patent US20240156832A1, “METHODS OF METABOLIZING METOPIMAZINE AND ITS SALTS” (Neurogastrx, Inc., priority 2020, published 2024).

Data set [1] in a line: Incubation with HKM for FMO. Format: in vitro ADME, human. The conditions noted are these: HKM pH 8.4, NADPH, with/without methimazole, heat inactivation. The method, then:
MPZ, at 1.0 and 10.0 μM, was incubated with HLM or HKM to determine the contribution of microsomal FMOs on the metabolism of MPZ. A reaction mixture containing KPi buffer (pH 8.4), HLM or HKM (0.5 mg/mL protein) and MPZ (1.0 and 10.0 μM) was pre-incubated for 3-5 minutes at 37° C. The reaction was initiated by the addition of NADPH into the reaction mixture. Reaction was conducted for 0 and 60 min. A positive control (benzydamine, 100 μM) was incubated in duplicate for 0 and 20 minutes. Parallel incubation was conducted by adding 1 mM methimazole, a non-specific FMO inhibitor, under identical conditions. Heat inactivated microsomes (50° C. for at least 5 minutes) was incubated under identical conditions negative control. All other procedures were the same as described previously.

In data set [2] the test system is rhFMO1, rhFMO3, and rhFMO5. In words: Incubation with recombinant FMO. The class given is in vitro ADME, human. Particulars: 1 μM MPZ, pH 8.4. The method, then:
Protein concentrations for all rFMO isoforms were 0.05 mg/mL. A positive control (benzydamine, 100 μM) was incubated for 20 minutes. […] All other procedures were the same as described previously. The negative control reactions were incubated absence of NADPH.

The conditions of data set [3]: both, human, in vivo, po, 60 mg. The method, then: The clinical study was conducted at Biotrial Rennes (Rennes, France), in accordance with the Declaration of Helsinki. The study (NG100-101) was a double-blind, placebo-controlled, ascending single- and multiple-dose study of the safety, tolerability, and pharmacokinetics of metopimazine administered orally to healthy adult subjects. The study protocol, informed consent form, and appropriate related documents were approved by the institutional review board, and all subjects provided written informed consent prior to participation in the study.
In this study, sequential ascending single doses were administered to 4 cohorts of 8 participants (6 actives and 2 placebos per cohort, in cohorts 1, 2 and 3 following a randomization 6:2 and in cohort 4 with a 1:1 randomization for the two sentinel participants. In the morning, after at least 10 hours of fasting overnight, eight healthy adult subjects (male or female aged 18 to 45), were orally administered metopimazine (or a matching placebo). Cohort 1-4 received a matching placebo or ascending doses of Vogalene (metopimazine) capsules at the doses of 15 mg, 30 mg, 45 mg, or 60 mg, respectively. […] Plasma concentrations of metopimazine, metopimazine acid and metopimazine sulfoxide were quantified using LC-MS/MS methods. […]

A further data set concerns the target human D2 receptor (Homo sapiens, UniProt P14416). The conditions noted are these: relative to MPZ; cited from earlier work.

Sequence of human D2 receptor (P14416 whole entry): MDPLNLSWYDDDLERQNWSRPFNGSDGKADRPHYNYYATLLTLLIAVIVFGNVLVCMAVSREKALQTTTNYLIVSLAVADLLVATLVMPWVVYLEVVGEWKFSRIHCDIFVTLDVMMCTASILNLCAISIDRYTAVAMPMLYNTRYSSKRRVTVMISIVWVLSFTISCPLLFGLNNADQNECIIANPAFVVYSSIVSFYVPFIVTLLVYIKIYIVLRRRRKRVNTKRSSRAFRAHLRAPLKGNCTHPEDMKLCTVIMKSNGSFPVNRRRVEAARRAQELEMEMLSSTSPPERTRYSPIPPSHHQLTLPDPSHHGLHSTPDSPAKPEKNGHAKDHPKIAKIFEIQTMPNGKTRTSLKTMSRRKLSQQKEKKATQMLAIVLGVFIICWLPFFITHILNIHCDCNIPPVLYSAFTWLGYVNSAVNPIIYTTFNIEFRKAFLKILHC

`CS(=O)(=O)c1ccc2c(c1)N(CCCN1CCC(C(N)=O)CC1)c1ccccc1S2` [MPZ, metopimazine]: the “metabolite production in HKM” value in data set [1] is on record as “did not produce any metabolites”; in data set [1] (listed as metopimazine), “No metabolites were produced under any condition”. The “metabolism of MPZ by recombinant FMO enzymes” value in data set [2] is on record as “did not metabolize MPZ”. Moreover, the Tmax (as a rule, the time from dosing to the highest level) in data set [3] was 3 h.

Regarding `CS(=O)(=O)c1ccc2c(c1)N(CCCN1CCC(C(=O)O)CC1)c1ccccc1S2` [MPZA, metopimazine acid], the “less potent at the human D2 receptor compared to the parent” value on human D2 receptor is recorded as “about 200 fold”.
